“Also recorded” adds a separate entry of the source.
What was measured:
[1] = aqueous solubility; type: physicochemical; conditions: in words
[2] = tested on: Bacillus subtilis 168; type: cell-based
[3] = tested on: Escherichia coli DH5a; type: cell-based
[4] = tested on: B. anthracis Sterne; type: cell-based, Bacillus anthracis; conditions: 24 μM, 12 h treatment, duplicate, *P<0.01 vs DMSO-treated
[5] = tested on: MRSA (S. aureus NRS384); test: cell density after 12 h treatment, MRSA; type: cell-based, Staphylococcus aureus; conditions: 24 μM, duplicate, #P<0.01 vs DMSO-treated MRSA
[6] = tested on: B. anthracis Sterne; type: cell-based, Bacillus anthracis; conditions: 4 μM, 30 min, mid-exponential phase cells, 22 °C
[7] = tested on: other representative members of the genus Bacillus; type: cell-based
[8] = tested on: Bacillus anthracis Sterne; conditions: microbroth dilution method, ref [6], [10]; cited from earlier work
[9] = tested on: other members of the genus Bacillus; conditions: cited from earlier work
[10] = tested on: BamL; conditions: cited from earlier work

RCTCTT [Arg-Az5]
aqueous solubility [1]: moderate solubility

plantazolicin [PZN]
minimum inhibitory concentration (MIC) [2]: >48 µM
minimum inhibitory concentration (MIC) [3]: >48 µM
bactericidal effect (cell density, 595 nm) [4]: bactericidal
antibiotic activity (cell density, 595 nm) [5]: not PZN displays antibiotic activity against MRSA
cell lysis [6]: induces major cell lysis above the MIC; also recorded: shows cell lysis
activity against other Bacillus (microbroth dilution) [7]: > 48 µM
susceptibility to purified PZN [8]: the only organism susceptible to the action of purified PZN to date has been Bacillus anthracis
growth inhibitory activity [9]: weak growth inhibitory activity

N=C(N)NCCC[C@H](N)C(=O)O [Arg]
acceptance as substrate [10]: not accepted as a substrate

NC(=O)[C@@H](N)CCCN=C(N)N [Arg amide]
acceptance as substrate [10]: poorer substrate that is turned over by BamL but only under single-turnover conditions; also recorded: only so under near-single turnover conditions
